Values after ≈ are worked out from the molar mass of the structure shown.
What was measured:
[1] = system: immunosuppressant activity; experiment: Immunosuppressant activity (general statement); type: in vivo; details: result in words
T. rubrum = experiment: Agar dilution antifungal assay, Trichophyton rubrum; type: cell-based, Trichophyton rubrum (ATCC No. 10218 and 14001); details: for MIC: Trichophyton rubrum, read-out: Parts Per Million Inhibitions, T. rubrum
Method: (§1) Various compounds of this invention display antifungal and anti-yeast activity.
(§2) In Table IX below are listed the antifungal activity of a number of compounds encompassed in the present invention. These were determined by the agar dilution method as described in Chapters 2 and 3 of Methods in Microbiology, Vol. 7B, edited by J. R. Norris and D. W. Ribbons, Academic Press, New York, 1972.

Rat Paw Edema = experiment: Rat paw edema assay, local administration; type: in vivo; details: injected directly into paw, carrageenan
Method: The anti-inflammatory activity of representative compounds of this invention was determined by the rat paw edema assay both by local administration (Table XI below) and by oral dosing (Table XII below). For the oral dosing, the procedure of C. A. Winter, E. A. Risley and G. W. Nuss, Proc. Soc. Exp. Biol. Med. 111, 544 (1962) was employed with measurement taken four hours after the drug was administered. The local administration tests were carried out similarly except the irritant (carrageenan) and the test compound were injected simultaneously at time zero.
Tables XI and XII report the anti-inflammatory activity of the compounds tested as % difference in the edema or swelling as compared with the control. These Tables also give the response in many instances of more than one dose level of the same drug.

T. ajelloi = experiment: Agar dilution antifungal assay, Trichophyton ajelloi; type: cell-based
Method: as §1, §2

T. mentagrophytes = experiment: Agar dilution antifungal assay, Trichophyton mentagrophytes; type: cell-based, Trichophyton mentagrophytes (ATCC No. 8757 and 9129)
Method: as §1, §2

c1ccc2c(c1)ncc1nccn12 [Compound 109, imidazo[1,2-a]quinoxaline] was tested, and the immunosuppressant activity [1] was “lacks immunosuppressant activity”.

CCCCc1nc2ccccc2n2ccnc12 [Compound 113] was tested, and the MIC (T. rubrum) was 16 µg/mL (≈ 71 µM).

CCCCCc1nc2ccccc2n2ccnc12 [Compound 114] was tested, and the “% Difference from Control (edema), local administration, 10 μg” value (Rat Paw Edema) was -30.0%.

In the case of CCCCCCCCc1nc2ccccc2n2ccnc12 [Compound 117], the MIC (T. ajelloi; Arthroderma uncinatum, read-out: Parts Per Million Inhibitions, T. ajelloi) is reported as 16 µg/mL (≈ 56.9 µM), the MIC (T. mentagrophytes; Trichophyton mentagrophytes, read-out: Parts Per Million Inhibitions, T. mentagrophytes) is reported as 16 µg/mL (≈ 56.9 µM) and the MIC (T. rubrum) is reported as 8 µg/mL (≈ 28.4 µM).

With c1ccc(-c2nc3ccccc3n3ccnc23)cc1 [Compound 131, 4-phenylimidazo[1,2-a]quinoxaline] the immunosuppressant activity [1] was “only minor activity”.

In the case of Clc1cccc(Nc2nc3ccccc3n3ccnc23)c1 [Compound 179], the “Parts Per Million Inhibitions, T. ajelloi” value (T. ajelloi) is reported as 100 Parts Per Million, the “Parts Per Million Inhibitions, T. mentagrophytes” value (T. mentagrophytes) is reported as 100 Parts Per Million and the “Parts Per Million Inhibitions, T. rubrum” value (T. rubrum) is reported as 100 Parts Per Million.

Source: patent publication US4200750A, “4-Substituted imidazo [1,2-a]quinoxalines” (Westwood Pharmaceuticals Inc., priority 1977, dated 1980)
